Measured values taken from US20250002467A1, “DESIGN, SYNTHESIS AND MECHANISMS OF ANTICANCER ACTIVITY OF NEW ACETYLATED 5-AMINOSALICYLATE-THIAZOLINONE HYBRID DERIVATIVES” (University of Sharjah, priority 2023, published 2025).
“Also recorded” adds a separate entry of the source.

How the values were obtained:
Assay type in all cases: cell-based
U373 = experiment: SRB cytotoxicity assay, U373
Description: (§1) Eight different cancer cell lines were acquired from the Radiobiology and Experimental Radio Oncology lab, University Medical Center, Hamburg University, Hamburg, Germany. MCF7, MDA-MB-231 (breast cancer), and A549 (lung cancer) cells were maintained in RPMI medium while HCT116 (colon cancer), HepG2 (liver cancer), U87, U373 (glioblastoma), and HeLa (cervical cancer) were maintained in DMEM supplemented with 10% FBS and 1% penicillin/streptomycin (Sigma Aldrich, Missouri, USA). Normal human fibroblast (F180) cells were maintained in DMEM supplemented with 15% FBS. Normal human mammary epithelial cell line (HME1) were maintained in DMEM/F-12 medium supplemented with 10% FBS. All incubations were done at 37° C. in a humidified atmosphere of 5% CO2. All cell lines were authenticated by short tandem repeat (STR) profiling. The CDK4 knockout cells (provided by Dr. Samrein Ahmed, University of Sharjah, United Arab Emirates) were generated by CRISPR-CAS9 technology and were maintained in DMEM supplemented with 10% FBS.
(§2) The cytotoxic effects of HH32 and HH33 compounds were evaluated at various concentrations ranging from 0.0001 to 100 μM by sulphrhodamine-B (SRB) assay as described previously. The anti-proliferative activity was expressed as growth inhibitory concentration (IC50) values, which were calculated by the sigmoidal dose-response curve fitting method using Graph pad prism 6 software (GraphPad Software, San Diego, CA, USA).

MCF7 = experiment: SRB cytotoxicity assay, MCF7; conditions: for IC50: MCF7, SRB, mean ± SEM
Description: as §1, §2

MCF7 cells = experiment: Metabolic analysis by GC-MS
Description: The release of different metabolites following HH32 and HH33 treatment on MCF7 cells was detected using Gas Chromatography-Mass Spectrometry (GC-MS) (Shimadzu, Kyoto, Japan) as was described previously. GC-MS analysis was performed using a QP2010 gas chromatography-mass spectrometer (GC-2010 coupled with a GC-MS QP-2010 Ultra) equipped with an auto-sampler (AOC-20i+s) from Shimadzu (Tokyo, Japan), using Rtx-5 ms column (30 m length×0.25 mm inner diameter x 0.25 μm film thickness; Restek, Bellefonte, PA, USA). Helium (99.9% purity) was used as the carrier gas with the column flow rate of 1 mL/min. Data collection and analysis were performed using MSD Enhanced Chemstation software (Shimadzu, Kyoto, Japan). GC total ion chromatograms (TIC) and fragmentation patterns of the compound were identified using the NIST/EPA/NIH Mass Spectral Library (NIST 14).
Preprocessing and data analysis were performed using an in-house R script. Only compounds registered in Human Metabolome Database (HMDB 4.0) were considered for further analysis. Compounds with more than 70% of missing values were considered unreliable and therefore excluded. Probabilistic Quotient Normalization was used to normalize data due to dilution effects in the extraction procedure. Missing metabolite measurements were imputed using the k-nearest neighbor algorithm with k—3. […] To account for multiple testing, a false discovery rate (FDR) of <15% was applied to reduce the identification of false positives. FDRs were calculated using the q conversion algorithm in multiple comparisons. Principal component analysis (PCA) was used to visualize the metabolomic data. Data were mean-centered and scaled to unit variance before PCA.

[1] = tested on: eight tested cancer cell lines; experiment: SRB cytotoxicity assay, eight cancer cell lines; conditions: for viability of the eight tested cancer cell lines: SRB, 0.0001 to 100 μM; for selectivity index compared with doxorubicin: cancer cell lines versus normal cells
Description: as §1, §2

[2] = tested on: MCF7, HCT-116, HeLa and A549 cells; experiment: Western blot protein expression analysis; conditions: for cyclin E, cyclin D1 and CDK2 levels: G1-S phase transition proteins; for phospho-Rb (ser249): HCT116 and HeLa cells; for level of p-H2Ax (y-H2Ax): MCF7, HeLa, HCT116, and A549 cells, 24 h; for cleavage of caspase-8: all cell lines; for ATR/Chk1 signaling: four cell lines
Description: The protein expression analysis was done after treatment with […] of HH32 and HH33 compounds for 24 hours by western blot. Cell lysates were prepared using lysis buffer containing 20% SDS, glycerol, 1M Tris (pH 6.8) and supplemented with protease and phosphatase inhibitors (Sigma Aldrich, Missouri, USA). The proteins were separated by SDS-PAGE and transblotted into nitrocellulose membrane (Biorad, Hercules, CA, USA). Membrane were incubated overnight at 4° C. with the following primary antibodies: 7H2AX, H2Ax, p21, CDC2, CDC25c, cyclin B, c-Myc, Bid, ATM, p-ATM, ATR, p-ATR, Chk1, p-Chk1, Chk2, p-Chk2, caspase 9, caspase 8, pRb (Ser807/811) (Cell Signaling Technology, Massachusetts, USA), p53, cyclin A, cyclin E, cyclin D1, CDK2, Rb, pRb (Ser249) (Santa Cruz Biotech, Texas, USA) and β-actin (Sigma Aldrich, Missouri, USA). Membranes were then incubated with respective mouse/rabbit secondary antibody (Cell Signaling Technology, Massachusetts, USA) for 1 hour at room temperature and detected by enhanced chemiluminescence (ECL) (Biorad, Hercules, CA, USA) method using Chemi Doc imaging system (Biorad, Hercules, CA, USA). The protein bands were quantified using Image lab™ software (Biorad, Hercules, CA, USA).

HCT-116 = experiment: SRB cytotoxicity assay, HCT-116
Description: as §1, §2

[3] = tested on: MCF7, HCT-116, HeLa and A549 cells; experiment: Annexin V/PI apoptosis analysis; conditions: for early apoptotic cell population (Annexin V+/PI-): 24 and 48 hours
Description: The cells were collected at 12, 24 and 48 hours after treatment with […] of HH32 and HH33 compounds. The detection of early and late apoptotic cell death was done using FITC Annexin V Apoptosis Detection Kit (Becton Dickenson, California, USA) according to the manufacturer's protocol. The data were analyzed by BD Accuri C6 flow cytometer (Becton Dickenson, New Jersey, USA).

HeLa = experiment: SRB cytotoxicity assay, HeLa
Description: as §1, §2

MDA-MB-231 = experiment: SRB cytotoxicity assay, MDA-MB-231
Description: as §1, §2

| SMILES | Selectivity index (U373; F180 versus U373) | Selectivity index (U373; HME1 versus U373) | Selectivity index (MCF7; F180 versus MCF7) | Selectivity index (MCF7; HME1 versus MCF7) | IC50 (MCF7) [µM] | viability of the eight tested cancer cell lines [1] | selectivity index compared with doxorubicin [1] | cyclin E, cyclin D1 and CDK2 levels [2] | phospho-Rb (ser249) [2] | phospho-Rb (ser807/811) ([2]; HCT-116) | expression of p53 and p21 ([2]; HeLa cells) | phospho-Rb (ser807/811) ([2]; HeLa cells) | expression of p53 and p21 ([2]; MCF7, HCT-116 and A549 cells) | phosphorylation status of ATM and Chk2 ([2]; MCF7, HCT-116 and A549 cells) | level of p-H2Ax (y-H2Ax) ([2]; 0.5 and 1 μM) | cleavage of caspase-8 [2] | ATR/Chk1 signaling [2] | Selectivity index (HCT-116; F180 versus HCT116) | Selectivity index (HCT-116; HME1 versus HCT116) | late apoptotic/dead cells (Annexin V+/PI+) ([3]; HCT-116 cells) | other results |
| --- | --- | --- | --- | --- | --- | --- | --- | --- | --- | --- | --- | --- | --- | --- | --- | --- | --- | --- | --- | --- | --- |
| COC(=O)c1cc(NC2=NC(=O)C(=Cc3ccc(C)cc3)S2)ccc1OC(C)=O [HH32, Methyl 2-acetoxy-5-[(5-(4-methylbenzylidene)-4 (H)-oxo-1,3-thiazol-2-yl)-amino]benzoate] | 0.45 | 0.9 | 3.88 | 7.8 | 3.44 ± 0.32 | remarkable concentration-dependent decrease | superior in most of cancer cell lines than doxorubicin | slightly changed | increased | reduced | reduced | increased | substantially increased | increased significantly | marked elevation | cleaved | activate | 11.4 | 22.9 | elevated | IC50 (U373; U373, SRB, mean ± SEM): 29.38 ± 0.08 µM; Guanosine levels (MCF7 cells; vs untreated cells): altered; total c-Myc protein level ([2]; 1 μM, MCF7 and HCT-116 cells): downregulation; phosphorylation status of ATM and Chk2 ([2]; HeLa cells): increased significantly; IC50 (HCT-116; HCT-116, SRB, mean ± SEM): 1.17 ± 0.46 µM; early apoptotic cell population (Annexin V+/PI-) ([3]; four cell lines): no sign of early apoptosis induction; Selectivity index (HeLa; F180 versus HeLa): 22.2; Selectivity index (HeLa; HME1 versus HeLa): 44.65; IC50 (HeLa; HeLa, SRB, mean ± SEM): 0.6 ± 0.47 µM; Selectivity index (MDA-MB-231; F180 versus MDA-MB-231): 0.87; Selectivity index (MDA-MB-231; HME1 versus MDA-MB-231): 1.7; IC50 (MDA-MB-231; MDA-MB-231, SRB, mean ± SEM): 15.35 ± 0.08 µM |
| COC(=O)c1cc(NC2=NC(=O)C(=Cc3ccc(N(C)C)cc3)S2)ccc1OC(C)=O [HH33, Methyl 2-acetoxy-5-[(5-(4-dimethylaminobenzylidene)-4 (H)-oxo-1,3-thiazol-2-yl)-amino]benzoate] | 0.17 | 0.4 | 4.89 | 11.4 | 0.81 ± 0.34 | remarkable concentration-dependent decrease | superior in most of cancer cell lines than doxorubicin | slightly changed | increased | reduced | reduced | increased | substantially increased | increased significantly | marked elevation | cleaved | activate | 13.48 | 31.9 | elevated | increase of palmitic acid (MCF7 cells): 20%; reduction of 1-Monopalmitin level (MCF7 cells; compared to control cells): 4.5 fold; level of 1-Monopalmitin (MCF7 cells; vs untreated cells): significant decreased; level of Adenosine (MCF7 cells; vs untreated cells): significant decreased; also recorded: significant reduction; level of Decanoic Acid (MCF7 cells; vs untreated cells): significant decreased; also recorded: reduction; total c-Myc protein level ([2]; 0.5 and 1 μM, four cancer cell lines): decreased; cleavage of caspase-9 ([2]; MCF7, HeLa and A549 cells): increase; reducing expression of G2/M progression proteins (cyclin A, cyclin B, CDC25c and CDC2/CDK1) ([2]; compared with HH32): more effective than HH32; potency compared with doxorubicin (HCT-116; HCT-116 cells): nearby equipotent; early apoptotic cell population (Annexin V+/PI-) ([3]; four cell lines): increased; late apoptotic/dead cells (Annexin V+/PI+) ([3]; four cell lines, with increasing concentration): increased; Selectivity index (HeLa; F180 versus HeLa): 16.3; Selectivity index (HeLa; HME1 versus HeLa): 38.5; activity compared with doxorubicin (HeLa; HeLa cells): superior activity than doxorubicin; Selectivity index (MDA-MB-231; F180 versus MDA-MB-231): 0.99; Selectivity index (MDA-MB-231; HME1 versus MDA-MB-231): 2.3 |
